Data: BindingDB's records for doi:10.1016/j.bioorg.2015.05.010 (Universiti Teknologi Mara (Uitm), 2015)

Target: T1, Beta-glucuronidase (Bos taurus, UniProt A3KMY8)
T1 sequence (A3KMY8 whole entry): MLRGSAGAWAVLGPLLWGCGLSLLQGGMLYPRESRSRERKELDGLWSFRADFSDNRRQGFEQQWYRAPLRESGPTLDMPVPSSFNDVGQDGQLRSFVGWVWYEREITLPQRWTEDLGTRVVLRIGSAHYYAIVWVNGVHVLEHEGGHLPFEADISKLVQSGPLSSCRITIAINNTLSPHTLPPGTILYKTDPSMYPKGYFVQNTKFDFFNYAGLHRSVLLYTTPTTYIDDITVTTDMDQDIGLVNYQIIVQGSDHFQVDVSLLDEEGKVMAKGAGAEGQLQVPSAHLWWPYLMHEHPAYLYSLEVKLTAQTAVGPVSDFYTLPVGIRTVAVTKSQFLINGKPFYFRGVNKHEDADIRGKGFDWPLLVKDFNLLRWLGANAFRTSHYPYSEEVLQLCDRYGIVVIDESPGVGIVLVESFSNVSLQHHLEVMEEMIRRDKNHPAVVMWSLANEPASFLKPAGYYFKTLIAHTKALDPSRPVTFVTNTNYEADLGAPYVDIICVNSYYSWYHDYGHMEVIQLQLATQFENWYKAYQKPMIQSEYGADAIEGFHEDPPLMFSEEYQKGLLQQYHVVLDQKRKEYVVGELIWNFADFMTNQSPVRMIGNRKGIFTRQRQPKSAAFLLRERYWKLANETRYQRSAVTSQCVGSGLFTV
Experiment: Beta-glucuronidase Inhibition Assay
Description: The total reaction volume was 250 µL. […] The reaction mixture contained 185 µL of 0.1 M acetate buffer, 5 µL of test compound solution, 10 µL of enzyme solution was incubated at 37 °C for 30 min. […] All assays were run in triplicate.

| IC50 [µM] | SMILES |
| --- | --- |
| 15.5 | COc1ccc(O)c(-c2nc3c(Cl)cc(Cl)cc3[nH]2)c1 [2-(4,6-dichloro-1H-benzo[d]imidazol-2-yl)-4-methoxyphenol (8)] |
| 11.5 | Oc1ccc(O)c(-c2nc3c(Cl)cc(Cl)cc3[nH]2)c1 [2-(4,6-dichloro-1H-benzo[d]imidazol-2-yl)benzene-1,4-diol (7)] |
| 4.48 | Oc1ccccc1-c1nc2cc(Cl)cc(Cl)c2[nH]1 [2-(4,6-dichloro-1H-benzo[d]imidazol-2-yl)phenol (1)] |
| 60.5 | Oc1cccc(-c2nc3c(Cl)cc(Cl)cc3[nH]2)c1O [3-(4,6-dichloro-1H-benzo[d]imidazol-2-yl)benzene-1,2-diol (4)] |
| 28.4 | Oc1cccc(-c2nc3c(Cl)cc(Cl)cc3[nH]2)c1 [3-(4,6-dichloro-1H-benzo[d]imidazol-2-yl)phenol (2)] |
| 36.1 | Clc1ccc(-c2nc3c(Cl)cc(Cl)cc3[nH]2)cc1 [4,6-Dichloro-2-(4-chlorophenyl)-1H-benzo[d]imidazole (12)] |
| 86.1 | Clc1cc(Cl)c2nc(-c3ccccn3)[nH]c2c1 [4,6-dichloro-2-(pyridin-2-yl)-1H-benzo[d]imidazole (19)] |
| 46.1 | Oc1ccc(-c2nc3c(Cl)cc(Cl)cc3[nH]2)cc1O [4-(4,6-dichloro-1H-benzo[d]imidazol-2-yl)benzene-1,2-diol (5)] |
| 14.2 | Oc1ccc(-c2nc3c(Cl)cc(Cl)cc3[nH]2)c(O)c1 [4-(4,6-dichloro-1H-benzo[d]imidazol-2-yl)benzene-1,3-diol (6)] |
| 14.2 | Oc1ccc(-c2nc3c(Cl)cc(Cl)cc3[nH]2)cc1 [4-(4,6-dichloro-1H-benzo[d]imidazol-2-yl)phenol (3)] |
| 86.3 | COc1ccc(-c2nc3c(Cl)cc(Cl)cc3[nH]2)cc1O [5-(4,6-dichloro-1H-benzo[d]imidazol-2-yl)-2-methoxyphenol (9)] |
